Measured values: patent US10670605B2, “Cysteine reactive probes and uses thereof” (The Scripps Research Institute, priority 2015, dated 2020)
Where a name gives a salt, the structure may show the parent alone.

Key:
Type in all cases: cell-based
[1] = test system: splenic T cells from C57BL/6 mice; assay: Activation of primary mouse T cells (CD25, CD69); settings: C57BL/6, 8 h
Description: Spleens were harvested from female mice, perfused with collagenase, and incubated at 37° C. with 5% CO2 for 30 min. After this time, the spleens were homogenized. Cells that passed through a 100 μm cell strainer were collected and washed with RPMI. T cells were isolated from the splenocytes using the EasySepTM Mouse T cell Isolation Kit (19851; […]) according to manufacturer's instructions. 96-well plates were coated with anti-CD3 (1:200; BioXcell) and anti-CD28 (1:500; 302933; BioLegend) in PBS (100 μL/well) overnight at 4° C. The plates were then washed twice with PBS and to each well was added 500,000 primary T cells in 100 μL of RPMI supplemented with 10% FBS, glutamine, and Pen-Strep. Cells were then treated with 100 μL of media containing compound at the indicated concentrations (final well volume of 200 μL). Cells were left at 37° C. in a 5% CO2 incubator for the indicated periods of time and harvested by centrifugation (500 g, 8 min, 4° C.), followed by washing with PBS. […] Data was then analyzed with FlowJo software (Treestar Inc.). […]

[2] = test system: intracellular GSH in primary human T cells; assay: Quantification of cellular glutathione (GSH) levels; settings: DMF 50 μM 2 h; BSO 2.5 mM 4 h
Description: Primary human T cells (2.5 million cells/mL, 20 mL per condition) were treated as indicated, harvested by centrifugation (500 g, 8 min, 4° C.), and washed twice with PBS. To the cell pellet was added 75 μL of lysis buffer. […] Protein concentrations were adjusted to at least 5 mg/mL and the assay performed according to manufacturer's instructions (Sigma-Aldrich, CS 1020). Data represent mean±SE for two biological replicates.

PKCθ-CD28 interaction = target: T1, PKCθ-CD28 interaction (Mus musculus, UniProt Q02111); assay: PKCθ immunoprecipitation with CD28 and immunoblot; settings: 50 μM, mouse T cells
T1 construct: endogenous in cells; host or cells: peripheral CD4+ T cells from C57BL/6 mice
T1 sequence (Q02111 whole entry): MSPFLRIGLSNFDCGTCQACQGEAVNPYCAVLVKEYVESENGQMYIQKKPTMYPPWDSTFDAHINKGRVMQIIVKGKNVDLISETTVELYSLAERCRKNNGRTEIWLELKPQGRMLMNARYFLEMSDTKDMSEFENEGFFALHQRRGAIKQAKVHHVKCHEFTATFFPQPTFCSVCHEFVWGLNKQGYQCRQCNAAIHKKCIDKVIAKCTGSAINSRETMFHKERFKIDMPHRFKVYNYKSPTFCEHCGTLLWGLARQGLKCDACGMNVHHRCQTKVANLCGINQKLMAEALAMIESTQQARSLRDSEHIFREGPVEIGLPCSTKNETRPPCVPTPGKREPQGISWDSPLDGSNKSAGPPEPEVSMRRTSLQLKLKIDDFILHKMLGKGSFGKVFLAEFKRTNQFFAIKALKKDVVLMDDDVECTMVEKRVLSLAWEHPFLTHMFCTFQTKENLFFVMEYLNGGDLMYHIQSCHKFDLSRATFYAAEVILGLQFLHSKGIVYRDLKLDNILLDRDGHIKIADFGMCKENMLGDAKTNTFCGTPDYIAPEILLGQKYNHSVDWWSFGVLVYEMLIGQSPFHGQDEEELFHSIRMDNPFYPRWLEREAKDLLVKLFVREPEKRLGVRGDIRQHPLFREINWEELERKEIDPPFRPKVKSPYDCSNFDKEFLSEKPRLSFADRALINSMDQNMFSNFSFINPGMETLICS
Source text: FIG. 32A-FIG. 32G exemplify DMF-sensitive C14/C17 residues in PKCθ are important for CD28 interactions and T cell activation. FIG. 32A illustrates representative MS1 profiles for DMF-sensitive (C14/C17) and -insensitive (C322) Cys residues in PKCθ. FIG. 32B exemplifies sequence conservation analysis of human and mouse PKCθ, human PKCδ, and human PKCε (SEQ ID NOS 865-868, respectively, in order of appearance). Shown in red are C14 and C17. FIG. 32C illustrates location of DMF-sensitive C14 and C17 residues in the C2 domain of PKCθ (PDB accession number 2ENJ). […] Immunoprecipitations (IPs) were performed in the cell lysates with anti-CD28 or control IgG antibodies and IPs blotted for CD28 or PKCθ. FIG. 32E illustrates Co-IP of WT PKCθ and the C14S/C17S (2CS) PKCθ mutant with CD28. PKCθ(−/−) T cells were reconstituted with empty vector (EV), WT PKCθ, or the 2CS PKCθ mutant. FIG. 32F and FIG. 32 G illustrate PKCθ(−/−) T cells reconstituted with WT or 2CS PKCθ were assayed for activation potential by measuring CD25 expression (FIG. 32F) and IL-2 (FIG. 32G). For FIG. 32E-FIG. 32G, PKCθ(−/−) T cell cultures were pre-activated with plate-coated anti-CD3+anti-CD28 for 24 h before retroviral transduction with empty vector, WT PKCθ, or the 2CS PKCθ mutant. […]

[3] = test system: Cys residues in mouse T cells; assay: isoTOP-ABPP of DMF-treated mouse T cells; settings: 50 μM, 4 h
Description: Spleens were harvested from female mice, perfused with collagenase, and incubated at 37° C. with 5% CO2 for 30 min. After this time, the spleens were homogenized. Cells that passed through a 100 μm cell strainer were collected and washed with RPMI. T cells were isolated from the splenocytes using the EasySep™ Mouse T cell Isolation Kit (19851; […]) according to manufacturer's instructions. Cells were lysed by sonication and diluted to a concentration of 2 mg protein/mL. […] Site-specific engagement of electrophilic compounds was assessed by blockade of IA-alkyne probe labeling. […] Overlapping peptides with the same labeled cysteine (for example, same local sequence around the labeled cysteines but different charge states, MudPIT segment numbers, or tryptic termini) were grouped together, and the median ratio from each group was recorded as the R value of the peptide for that run.

SMAD2 C81 (Q15796) = SMAD2 C81 (Q15796) (Homo sapiens, UniProt Q15796); assay: Competitive isoTOP-ABPP in situ; settings: fragment 2 at 200 μM, MDA-MB-231 cells
Sequence of SMAD2 C81 (Q15796) (Q15796 whole entry, the tested form may be a part): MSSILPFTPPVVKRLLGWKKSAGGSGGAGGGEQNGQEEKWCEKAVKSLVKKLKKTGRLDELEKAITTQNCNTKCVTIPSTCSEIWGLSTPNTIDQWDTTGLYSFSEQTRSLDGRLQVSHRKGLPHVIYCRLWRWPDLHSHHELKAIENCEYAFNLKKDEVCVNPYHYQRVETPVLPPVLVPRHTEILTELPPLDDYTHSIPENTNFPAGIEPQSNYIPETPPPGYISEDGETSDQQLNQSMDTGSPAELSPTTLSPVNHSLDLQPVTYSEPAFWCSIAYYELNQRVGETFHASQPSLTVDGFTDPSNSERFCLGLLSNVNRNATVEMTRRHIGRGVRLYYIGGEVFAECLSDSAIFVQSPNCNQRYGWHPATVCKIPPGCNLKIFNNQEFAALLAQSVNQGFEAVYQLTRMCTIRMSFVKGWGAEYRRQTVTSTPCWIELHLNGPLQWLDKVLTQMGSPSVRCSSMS

## COC(=O)/C=C/C(=O)OC [DMF, dimethyl fumarate]
[1]
  activation of primary mouse splenic T cells: suppressed
[2]
  cellular GSH content: significant decrease
PKCθ-CD28 interaction
  interaction between PKCθ and CD28: blocked
[3]
  fraction of conserved, quantified DMF-sensitive Cys also blocked (R >4) in mouse T cells: > 80%

## COc1ccc2c(c1)CCCN2C(=O)CCl [compound 2]
SMAD2 C81 (Q15796)
  isoTOP-ABPP reactivity profile (ratio) 2_200 μM_in-situ_231: 20.0
